Here are results for three compounds from US20250235501A1, “Methods and Compositions for Treating or Preventing Neurological Injury or Neurological Disorders” (University of Connecticut, priority 2024, published 2025).

Each structure is given as a SMILES string.

Test [1] deals with NMDARs (GluN1a, GluN2a, GluN2b). As to the kind of experiment: Surface expression of NMDARs in HEK293T cells co-transfected with NMDARs and TRPM2 (WB). It is filed as cell-based, human. As to conditions: 1 μM compound overnight. As for the experimental part: FIGS. 4K-4N show the surface expression of NMDARs in HEK-293T cells co-transfected with TRPM2 or EGFP with the treatment of PKC activator PMA (FIG. 4K) and inhibitor Stausporine (FIG. 4L). Membrane (Mem) and cytocol (Cyto) NMDARs were analyzed and averaged from 3 independent experiments with 1 μM PMA treatment (FIG. 4N) or 1 μM Stausporine treatment (FIG. 4L) for overnight. Pan-cadherin and β-tubulin were loading controls for membrane and cytosol protein, respectively (*, p<0.05, **, p<0.01, ***, p<0.001, unpaired t-test, mean±SEM, n=3/group).
FIGS. 5C-5F effects of TAT-EE3 on surface expression of NMDARs. HEK293T cells co-transfected with NMDARs with TRPM2 (+M2) or EGFP vector (Con) were treated with 10 μM TAT-SC (FIG. 5C) or TAT-EE3 (FIG. 5D) overnight. Membrane (Mem) and cytosol (Cyto) proteins of NMDARs in TAT-SC (FIG. 5E) and TAT-EE3 (FIG. 5F) treated groups were assessed by WBs and analyzed in reference to Pan-cadherin or β-tubulin (**, p<0.01, ***, p<0.001, unpaired t-test, mean±SEM). All the results were replicated in at least 3 independent experiments.
Pan-cadherin and β-tubulin were used as loading control for membrane and cytosolic protein extraction.
were ordered from GenScript Biotech, and dissolved in PBS to make a stock concentration at 10 mM. HEK-293T cells or isolated neurons were treated with TAT-SC or TAT-EE3 at a concentration of 10 μM for at least 8 h prior to use. Mice were injected with TAT-SC or TAT-EE3 intraperitoneally (ip) at a dose of 100 nmol/kg.
HEK293T cells were cultured in Dulbecco's Modified Eagle's medium (DMEM) (Thermal Fisher Scientific, 12100-038) supplemented with 10% BGS (HyClone, SH30541.03) and 0.5% penicillin/streptomycin (Thermal Fisher Scientific, 15140-122) at 37° C. and 5% CO2. 8 h prior to transfection, culture medium was replaced with DMEM supplemented only with 2.5% BGS. Cells were transfected when at a confluence about 80-90% using Lipofectamine® 3000 Transfection Kit (Thermal Fisher Scientific, 2232162) based on instruction.
NP-40/Triton lysis buffer ([…], 1% Triton™ X-100, 150 mM NaCl, 1 mM EDTA, 50 mM Tris, pH=8.0) containing proteinase inhibitors and phosphatase inhibitors was used to lyse both cultured cells and frozen brain tissue. Surface protein was extracted using Pierce® Cell Surface Protein Isolation Kit (Thermal Fisher Scientific, 89881) in transfected HEK-293T cells, and using ProteoExtract™ Native Membrane Protein Extraction Kit (Calbiochem, 444810) in brain tissue based on instructions. […] Protein concentration was measured using Pierce™ Rapid Gold BCA Protein Assay Kit.
30-50 μg of total protein was loaded and separated proteins were transferred to Nitrocellulose membranes. […] Band intensity was quantified using ImageJ software and normalized with appropriate loading controls.

For the next test, the system named is NMDARs. As to the kind of experiment: NMDAR currents in cultured cortical neurons of WT and TRPM2-KO mice (whole cell recording). It is filed as cell-based, mouse. The conditions noted are these: for NMDAR current amplitude in WT neurons: 1 μM compound overnight, 10 μM NMDA, -80 mV, compared with TRPM2-KO neurons. As for the experimental part:
FIGS. 4O and 4P show the effects of stausporine on NMDAR currents recorded from cortical neurons cultured for 14 days. FIG. 4O show representative NMDAR currents elicited at −80 mV by 10 μM NMDA in WT and TRPM2-KO (gM2KO) neurons treated with or without Stausporine at 1 μM for overnight. FIG. 4P show the average current amplitude (ns, p>0.05; **, p<0.01; ANOVA, Bonferroni's test; mean±SEM, n=11, 10, 10, 12 neurons from 2 mice respectively).
FIG. 4S show representative NMDAR currents elicited by NMDA in WT and TRPM2-KO neurons treated with or without endosidin2 at 1 μM for overnight.
FIGS. 5I-5K show the effects of TAT-EE3 on PKC induced changes of NMDAR currents recorded in cortical neurons of WT and TRPM2-KO. Neurons were incubated with 10 μM TAT-SC or TAT-EE3 for overnight before current recording. FIG. 5I show representative NMDAR currents elicited by 10 μM NMDA at −80 mV before and after PMA (1 μM) perfusion for 20 s. TAT-SC or TAT-EE3 10 μM was included in the pipette solution for current recording.
FIGS. 6A and 6B show the effects of TAT-EE3 on NMDAR currents in WT and gM2KO cortical neurons cultured for 14 days. […] TAT-SC or TAT-EE3 10 μM was included in the pipette solution during current recording.
Mice pups at P0 were euthanized based on animal protocol. Whole brain was dissected out immediately and immersed in ice-cold Hank's Balanced Salt Solution (HBSS). Meninges were removed thoroughly, and tissue of different brain areas was taken based on purposes. Brain tissue was cut into small pieces and digested with 0.25% trypsin (Thermal Fisher Scientific, 15090-046) in HBSS at 37° C. for 20 min. Digestion solution was quickly removed, and tissue pellets are washed with Neurobasal® Medium (Thermal Fisher Scientific, 21103-049) for 3 times. Cells were resuspended with appropriate amount of Neurobasal® Medium supplemented with 2% B27® supplement (Thermal Fisher Scientific, 17504-044), 3% horse serum (Thermal Fisher Scientific, 16050114), 0.25% L-glutamine (Thermal Fisher Scientific, 25030-081) and 1% penicillin/streptomycin (Thermal Fisher Scientific, 15140-122). Isolated cells were counted and plated on coverslips pre-coated with poly-L-lysine (Sigma-Aldrich, P4707) at a density about 500×10^3 cells/cm2 for OGD and H2O2 treatment, and 100×10^3 cells/cm2 for current recording. Cytosine arabinoside (Sigma-Aldrich, C1768) was added to maintain a concentration at 1 μM to inhibit the proliferation of non-neuronal cells. 24 h after plating, culture medium was changed to Neurobasal® Medium supplemented with 2% B27® supplement, 0.25% L-glutamine and 1% penicillin/streptomycin. The concentration of Cytosine arabinoside (araC) was increased to 2 μM. Medium was changed every 3 days. OGD and H2O2 treatment was conducted at 7th day of culture, and current recording was conducted at 7th, 10th and 14th day of culture.
Whole cell currents were recorded using an Axopatch 200B amplifier. Data were digitized at 10 or 20 kHz and digitally filtered offline at 1 kHz. Patch electrodes were pulled from borosilicate glass and fire-polished to a resistance of ˜3 MΩ when filled with internal solutions. Series resistance (Rs) was compensated up to 90% to reduce series resistance errors to <5 mV. Cells in which Rs was >10 MΩ were discarded (Du, J., Xie, J., and Yue, L. (2009). Modulation of TRPM2 by acidic pH and the underlying mechanisms for pH sensitivity. J Gen Physiol 134, 471-88).
For heterologous expression, transfected HEK-293 cells were identified by GFP fluorescence. TRPM2 current recording in transfected HEK-293T cells was performed as we previously reported (Du, J., Xie, J., and Yue, L. (2009). Intracellular calcium activates TRPM2 and its alternative spliced isoforms. Proceedings of the National Academy of Sciences 107, 7239-44; Du, J., Xie, J., and Yue, L. (2009). Modulation of TRPM2 by acidic pH and the underlying mechanisms for pH sensitivity. J Gen Physiol 134, 471-88). […]

For the compound `COc1cc(/C=N/NC(=O)c2cccc(F)c2)cc(I)c1O` [Endosidin 2, reference compound], the “surface expression level of NMDARs in cells transfected with NMDARs and TRPM2” value (“surface expression level of NMDARs” below) in test [1] is “prevented the increase”. Moreover, the “NMDAR current amplitude in WT neurons” value in the test with NMDARs was “abolished the increased current amplitude”.
On to `CCCCCCCCCCCCCC(=O)O[C@@H]1[C@@H](C)[C@@]2(O)[C@@H](C=C(CO)C[C@]3(O)C(=O)C(C)=C[C@@H]23)[C@@H]2C(C)(C)[C@]12OC(C)=O` [PMA, Phorbol-12-myristate-13-acetate, reference compound], for which the “surface expression level of NMDARs” value in test [1] is reported as “much higher level of surface NMDARs”. Further, in the test with NMDARs (WT neurons, PMA 1 μM perfusion for 20 s), the “increase of NMDA-induced current by PMA” value was “about 1.5 fold”. The “NMDA-induced current after PMA perfusion” value in the test with NMDARs (WT neurons, PMA 1 μM perfusion for 20 s, before PMA 1542.1±117.1 pA) was 3642.1±180.8 pA.
As to `CN[C@@H]1C[C@H]2O[C@@](C)([C@@H]1OC)n1c3ccccc3c3c4c(c5c6ccccc6n2c5c31)C(=O)NC4` [stausporine, reference compound], the “surface expression level of NMDARs” value in test [1] is given as “abolished the enhanced surface expression level”. Moreover, the “NMDAR current amplitude in WT neurons” value in the test on NMDARs is “normalized NMDAR current amplitude in the WT neuron to the similar amplitude level of NMDAR current in TRPM2-KO neurons”.
